Experimental data from patent US20030044413A1, “Methods of limiting apoptosis of cells” (Regents of the University of Minnesota, priority 1998, published 2003).
Values joined by “and” are separate entries in the source; they are usually repeats but may differ in a detail not shown here. Equal values may be shown once.

Assays:
[1] = tested on: isolated rat liver mitochondria; assay: MPT spectrophotometric assay (mitochondrial swelling); details: for effect on DCA-induced MPT / mitochondrial swelling: preincubation (500 μM bile acid or cyclosporine A) before DCA; for mitochondrial swelling with the substance alone: substance alone added to isolated mitochondria
Experimental: Isolation of mitochondria and MPT assays. Low calcium liver mitochondria were isolated from male 200-250 g Sprague-Dawley rats by density gradient centrifugation as previously published (Botla et al., J. Pharmacol. Exp. Ther., 272, 930-938 (1995); Walajtys-Rhode et al., J. Biol. Chem., 267, 370-379 (1992); and Sokol et al., Gastroenterology, 99, 1061-1071 (1990)). The mitochondrial fraction was resuspended in 30 ml of wash buffer containing 0.1 M KCl, 5 mM 3-(N-morpholino)-propane sulfonic acid (MOPS), and 1 mM EGTA, at pH 7.4 and centrifuged at 7,000×g for 10 min at 4° C. A final wash was carried out in chelex-100-treated buffer (Bio-Rad Laboratories, Hercules, Calif.) containing no EGTA. The resulting pellet was suspended in 4 ml of chelex--100-treated buffer containing 125 mM sucrose, 5 mM HEPES, 50 mM KCl and 2 mM KH2PO4. The usual yield of mitochondria was approximately 25 mg of protein per gram of liver tissue. Mitochondrial purity was established as previously described (Botla et al., J. Pharmacol. Exp. Ther., 272, 930-938 (1995)). Protein concentrations were determined using the Bio-Rad protein assay kit as specified by the manufacturer.
MPT was measured spectrophotometrically as described previously (Botla et al., J. Pharmacol. Exp. Ther., 272, 930-938 (1995); Pastorino et al., J. Biol. Chem., 268, 13791-13798 (1993)), during 10 min incubations at 25° C. using mitochondria (1 mg of protein/ml) suspended in 3 ml of a chelex-100-treated buffer containing 0.1 M NaCl, 10 mM MOPS, pH 7.4. Swelling was monitored at 540 nm in a Beckman DU 64 spectrophotometer. Basal values of mitochondria absorbance were measured for 5 min, and the optical density was monitored another 5 min after addition of 200 μM DCA or 80 μM phenylarsine oxide (PhAsO; Sigma Chemical Co.). For coincubation studies, mitochondria were preincubated with 500 μM UDCA or hyodeoxycholic acid for 5 min at 25° C. prior to the assay.
Spectrophotometric and Fluorimetric Assays of MPT. The MPT was assessed using a spectrophotometric assay measuring high amplitude rapid changes in mitochondrial volume, and a fluorimetric assay quantitating the release of calcein from calcein-loaded mitochondria. The MPT was measured spectrophotometrically as previously described (Pastorino, J. Biol. Chem., 268, 13791-13798 (1993); Botla et al., J. Pharmacol. Exp. Ther., 272, 930-938 (1995)). Briefly, mitochondria (3 mg protein) were incubated in 3 ml of chelex-100-treated respiration buffer (0.1 M NaCl, 10 mM MOPS, pH 7.4) for 10 min at 25° C. and monitored at 540 nm in a Beckman DU 64 spectrophotometer. Basal values of mitochondrial absorbance were measured for 5 min, and the optical density was monitored for an additional 5 min after addition of increasing concentrations of DCA (50-200 μM) or 80 μM phenylarsine oxide (PhAsO; Sigma Chemical Co., St. Louis, Mo.). For the coincubation studies, mitochondria were preincubated with UDCA (100-500 μM), or 500 μM hyodeoxycholic acid (HDCA; Sigma Chemical Co.) for 5 min at 25° C. prior to initiation of the assay.
Measurement of MPT and determination of cytochrome c content in supernatants and mitochondrial pellets after MPT. The MPT was assessed using a spectrophotometric assay measuring high amplitude rapid changes in mitochondria volume. Mitochondria (1 mg protein) were incubated in 1 ml of chelex-100-treated respiration buffer (0.1 M NaCl, 10 mM MOPS, pH 7.4) for 10 min at 25° C. and swelling was monitored at 540 nm in a Beckman DU 64 spectrophotometer. Malate and glutamate (1 mM) were added to initiate respiration, and 3 min later rotenone (5 μM), an inhibitor of complex I of the respiratory chain, was also added to the supension. Basal values of mitochondria absorbance were measured for 5 min, and the optical density was monitored for an additional 5 min after addition 200 μM DCA or 80 μM phenylarsine oxide (PhAsO; Sigma Chemical Co.). […]

[2] = tested on: Saos-2 cells; assay: FACS analysis of ΔΨm and ROS, Saos-2 cells; format: cell-based, human
Experimental: A ΔΨm and ROS measurement. ΔΨm and ROS production were measured by FACScan (Becton Dickinson) analysis. Freshly isolated rat hepatocytes were cultured for 3 h as described above and then incubated with William's E medium supplemented with either 100 μM DCA, 100 μM UDCA, equal molar amounts of both, or no bile acid (control), for 6 h. Rat hepatocytes were also cultured with either 1% ethanol, 100 μM UDCA, ethanol+UDCA, or no addition (control) for 4 h. HuH-7 cells, Hep G2 cells, and human osteogenic sarcoma Saos-2 cells were incubated with TGF-β1, anti-Fas antibody or okadaic acid, respectively, for 48 h under the same conditions as outlined above. For combination studies, cells were pretreated with UDCA or hyodeoxycholic acid for 60 min prior to addition of DCA, ethanol, TGF-β1, anti-Fas antibody or okadaic acid. Aliquots of 1.0×10^6 cells were incubated for 15 min at 37° C. with 50 nM 3,3′-dihexyloxacarbocyanine iodide [DiOC6(3)], 2 μM dihydroethidium (HE), or 5 μM 2′,7′-dichlorofluorescin diacetate (H2DCFDA; Molecular Probes, Inc. Eugene, Oreg.) and analyzed by cytofluorometry (Cathcart et al., Anal. Biochem., 134, 111-116 (1983); Zamzami et al., J. Exp. Med., 181, 1661-1672 (1 995); Carter et al., J. Leukocyte Biol., 55, 253-258 (1994)).
Rat primary hepatocytes were incubated with 100 μM DCA and 1% ETOH for 6 h and 4 h, respectively; HuH-7 cells with 1 nM TGF-β1 for 48 h; Hep G2 cells with 0.5 μg/ml anti-Fas antibody (CH-11) for 48 h, and Saos-2 cells with 50 nM okadaic acid (OA) for 48 h. In each combination group, cells were pretreated with 100 μM UDCA alone for 60 min prior to addition of the inducer. Aliquots of 1.0×10^6 cells were incubated for 15 min at 37° C. with 5 μM 2′,7′-dichlorofluorescin diacetate (H2DCFDA) and analyzed by cytofluorometry.

[3] = inducer OA, Saos-2, inhibition by UDCA

Molecule: C[C@H](CCC(=O)O)[C@H]1CC[C@H]2[C@@H]3CC[C@@H]4C[C@H](O)CC[C@]4(C)[C@H]3C[C@H](O)[C@]12C [DCA, deoxycholic acid]
- concentration at which high amplitude mitochondrial swelling was detected (as low as) [1]: 50 µM
- MPT, increase over control ([1]; 50 μM DCA): 4 fold

Molecule: C[C@H](CCC(=O)O)[C@H]1CC[C@H]2[C@@H]3[C@@H](O)C[C@@H]4C[C@H](O)CC[C@]4(C)[C@H]3CC[C@]12C [UDCA, ursodeoxycholic acid]
- Peroxides Production (%) Inducer + UDCA ([2]; 50 nM OA 48 h, 100 μM UDCA pretreatment 60 min): 5.4 ± 1.5 %
- inhibition at 100 µM ([2]; Homo sapiens, inducer OA, Saos-2, 100 μM UDCA, read-out: % Inhibition of peroxides production): 64.6 ± 7.5%
- Inhibition % Superoxide Anion [2, 3]: 77.6 ± 18.1%
- Inhibition % _Ψm [2, 3]: 21.9 ± 10.7 %
- swelling ([1]; 100 μM UDCA 5 min before 200 μM DCA): 26.8±6.3%
- inhibition of DCA-induced MPT (mitochondrial swelling) ([1]; 200 μM DCA, pretreatment 500 μM UDCA or 5 μM cyclosporine A): > 40% and 43.1±1.6%
- swelling ([1]; 500 μM UDCA 5 min before 200 μM DCA): 16.9±2.3%

Molecule: C[C@H](CCC(=O)O)[C@H]1CC[C@H]2[C@@H]3C[C@H](O)[C@@H]4C[C@H](O)CC[C@]4(C)[C@H]3CC[C@]12C [hyodeoxycholic acid]
- effect on DCA-induced MPT / mitochondrial swelling [1]: nor did it have a protective effect
- effect on DCA-induced MPT / mitochondrial swelling ([1]; listed as HDCA): did not decrease DCA-induced mitochondrial swelling
- mitochondrial swelling with the substance alone [1]: No significant mitochondrial swelling

Molecule: C=C1[C@@H](O)[C@@H]2O[C@]3(CC[C@H](/C=C/[C@@H](C)[C@@H]4CC(C)=C[C@@]5(O[C@H](C[C@@](C)(O)C(=O)O)CC[C@H]5O)O4)O3)CC[C@H]2O[C@@H]1[C@@H](O)C[C@H](C)[C@H]1O[C@@]2(CCCCO2)CC[C@H]1C [okadaic acid]
- Peroxides Production (%) Inducer ([2]; 50 nM OA, 48 h, Saos-2): 15.0 ± 1.1%
- mitochondrial swelling with the substance alone [1]: did not induce mitochondria swelling

Molecule: TGF-β1: transforming growth factor β1, nonmembrane damaging inducer of apoptosis
- mitochondrial swelling with the substance alone [1]: did not induce mitochondria swelling
